{
  "source": "patent US9788546B2",
  "about": "“Synergistic pesticidal compositions and related methods” (DOW AGROSCIENCES LLC, priority 2013, dated 2017)",
  "format_in_all_cases": "in vivo",
  "key": {"[1]": {"system": "brown stink bugs, Euschistus heros", "test": "Field spray and mesh cage test with bifenthrin, average mortality at 1, 2, 4, and 7 days", "conditions": "1, 2, 4, and 7 days after treatment", "procedure": "Two emulsifying concentrate pesticidal compositions with a weight ratio of compound I to bifenthrin of 1:1 were prepared. The first comprising 0.0167 weight % of compound I and about 0.0167 weight % of bifenthrin and the second comprising 0.0333 weight % compound I and 0.0333 weight % bifenthrin. The compositions were diluted and applied to the field using a spray volume of […]. The application was done using a CO2 backpack sprayer with a solid cone nozzle TXVK-8 (ConeJet). Plants were allowed to air dry and then were placed in a mesh cage where different instar stink bugs were infested in two different trials (3rd and 4th nymphal stage, and adults). Average stink bug mortality was assessed at 1, 2, 4, and 7 days after application counting the number of dead insects and calculating the percent control based on the survivorship in the untreated treatment.\nThe average percent control of the pesticidal composition against brown stink bugs, Euschistus heros, was determined as the “Average Observed” action, and compared to the average of those obtained by using about 0.0167 weight %, 0.0333 weight %, and 0.0667 weight % of compound I alone, and the average of those obtained using about 0.0167 weight % and 0.0333 weight % of bifenthrin alone. The “Colby's Expected Action” was calculated using Colby's equation as discussed previously. […]"}, "[2]": {"system": "green stink bugs, Nezara viridula", "test": "Field test, backpack sprayer, natural stink bug infestation", "conditions": "Compound I alone, 0.0306 weight %", "procedure": "(§1) Dyne-Amic at 0.625% V/V was used as an adjuvant in the tank mix, and the application was done using a backpack sprayer. Trial was conducted under a natural stink bug infestation. Numbers of adults and nymphs were counted four days after application in 1.82 meters of row per plot using a shake sheet (0.91 meters by 2 rows).\n(§2) The “Colby's Expected Action” was calculated using Colby's equation as discussed previously."}, "[3]": {"system": "brown stink bug, Euschistus servus (Say)", "test": "Field test, backpack sprayer, natural stink bug infestation", "conditions": "Compound I alone", "procedure": "as §1, §2, §2, §2"}, "[4]": {"system": "brown stink bug, Euschistus heros", "test": "Bean piece dip bioassay, third-instar nymphs", "conditions": "Compound I alone, 0.04 weight %", "procedure": "The active compounds were formulated in a 10% acetone solution with 0.025% non-ionic surfactant, TWEEN® 20. Bioassays were performed for each different active solution. Bean pieces (about one inch-long) were used for the tests. Four bean pieces were placed in each tested active solution and left there for 10 minutes. Bean pieces were taken out of the active solution, and each piece was placed in a well in a 32-well tray and allowed to air dry. Three third-instar nymphs of brown stink bug, Euschistus heros, were infested into each well. The percent control of the pesticidal composition against brown stink bug, Euschistus heros, was determined as the “Observed” action, and compared to those obtained by using about 0.04 weight % of compound I, and using about 0.0025 weight % of lambda-cyhalothrin alone. The “Colby's Expected Action” was calculated using Colby's equation as discussed previously."}, "[5]": {"system": "brown stink bugs, Euschistus heros", "test": "Field spray and mesh cage test with alpha-cypermethrin, average mortality at 1 and 3 days", "conditions": "1 and 3 days after treatment", "procedure": "Two emulsifying concentrate pesticidal compositions with a weight ratio of compound I to alpha-cypermethrin of 1:1 were prepared. The first comprising 0.0167 weight % of compound I and about 0.0167 weight % of alpha-cypermethrin and the second comprising 0.0333 weight % compound I and 0.0333 weight % alpha-cypermethrin. The compositions were diluted and applied to the field using a spray volume of […]. The application was done using a CO2 backpack sprayer with a solid cone nozzle TXVK-8 (ConeJet). Plants were allowed to air dry and then were placed in a mesh cage where different instar stink bugs were infested (3rd and 4th nymphal stage, and adults). Average stink bug mortality was assessed at 1 and 3 days after application counting the number of dead insects and calculating the percent control based on the survivorship in the untreated.\nThe average percent control of the pesticidal composition against brown stink bugs, Euschistus heros, was determined as the “Average Observed” action, and compared to the average of those obtained by using about 0.0167 weight %, 0.0333 weight %, and 0.0667 weight % of compound I alone, and the average of those obtained using about 0.0167 weight % and 0.0333 weight % of alpha-cypermethrin alone. The “Colby's Expected Action” was calculated using Colby's equation as discussed previously. […]"}, "[6]": {"system": "Lygus bug, Lygus hesperus (Knight)", "test": "Treated string bean bioassay, four-day old nymphs", "conditions": "Compound II alone, 0.04 weight %", "procedure": "String beans were treated with different active compounds for ten minutes. Three four-day old nymphs of Lygus bug, Lygus hesperus (Knight), were infested onto each bean sample."}, "[7]": {"system": "Western flower thrips, Frankliniella occidentalis (Pergande)", "test": "Cotton leaf punch dip bioassay, mortality of nymphs", "conditions": "Compound II alone, 0.04 weight %; Example 5", "procedure": "The active compounds were formulated in a 10% acetone solution with 0.025% non-ionic surfactant, TWEEN® 20. Cotton leaf punches were used for bioassays. Two cotton leaf punches were placed in each solution and left there for 10 minutes. Leaves were taken out of the solution, placed on a piece of filter paper in separated Petri dishes, and air dried. Each leaf disc was considered a repetition. Five nymph of Western flower thrips, Frankliniella occidentalis, were infested per repetition. The assessment of mortality was done three days after infestation. The percent control of the pesticidal composition Western flower thrips, Frankliniella occidentalis (Pergande), was determined as the “Observed” action, and compared to those obtained by using about 0.04 weight % of compound II, and using about 0.02 weight % of lambda-cyhalothrin alone. The “Colby's Expected Action” was calculated using Colby's equation as discussed previously.\nThe active compounds were formulated in a 10% acetone solution with 0.025% non-ionic surfactant, TWEEN® 20. Cotton leaf punches were used for bioassays. Two cotton leaf punches were placed in each solution and left there for 10 minutes. Leaves were taken out of the solution, placed on a piece of filter paper in separated Petri dishes, and air dried. Each leaf disc was considered a repetition. […]"}, "[8]": {"system": "brown stink bug, Euschistus heros", "test": "Diet treatment bioassay, second-instar nymphs", "conditions": "Compound II alone, 0.04 weight %"}, "[9]": {"system": "stink bugs (Edessa meditabunda, Euschistus heros, and Piezodorus guildinii)", "conditions": "Compound II alone, field test", "procedure": "[…] Silwet L-77 at 0.1% V/V was used as an adjuvant in the tank mix, and the application was done using a CO2 backpack sprayer. Trial was conducted under a natural stink bug infestation. […] The stink bug population consisted on about 75% Edessa meditabunda, 20% of Euschistus heros, and 5% Piezodorus guildinii.\nThis was about 48% improvement over the Colby's expected action."}, "[10]": {"conditions": "Compound I alone (1:0), average of 0.0167, 0.0333 and 0.0667 weight %"}},
  "note": "Like-named read-outs stand apart in the source and are kept apart here.",
  "data": [
    {"compound": "Cc1c(COC(=O)[C@@H]2[C@H](/C=C(\\Cl)C(F)(F)F)C2(C)C)cccc1-c1ccccc1", "note": "(racemic) [Bifenthrin, bifenthrin, reference compound]", "values": [
      {"measurement": "Average % Control", "setting": "[1]; Bifenthrin alone (0:1), average of 0.0167 and 0.0333 weight %", "result": 41.6, "unit": "%"}
    ]},
    {"compound": "CCN(C(=O)CCSCCC(F)(F)F)c1cn(-c2cccnc2)nc1Cl", "note": "[Compound I, N-(3-chloro-1-(pyridin-3-yl)-1H-pyrazol-4-yl)-N-ethyl-3-((3,3,3-trifluoropropyl)thio)propanamide]", "values": [
      {"measurement": "% Control Four Days After Treatment", "setting": "[2]; Example 11A", "result": 7.39, "unit": "%"},
      {"measurement": "% Control Four Days After Treatment", "setting": "[2]; Example 11B", "result": 11.94, "unit": "%"},
      {"measurement": "% Control Four Days After Treatment", "setting": "[3]; 0.0306 weight %", "result": 15.15, "unit": "%"},
      {"measurement": "% Control Four Days After Treatment", "setting": "[3]; 0.0459 weight %", "result": 15.15, "unit": "%"},
      {"measurement": "Average % Control", "setting": "[1]; [10]", "result": 9.34, "unit": "%"},
      {"measurement": "% Control Four Days After Treatment", "setting": "[4]", "result": 17, "unit": "%"},
      {"measurement": "Average % Control", "setting": "[5]; [10]", "result": 6.93, "unit": "%"}
    ]},
    {"compound": "CCN(C(=O)CC[S+]([O-])CCC(F)(F)F)c1cn(-c2cccnc2)nc1Cl", "note": "(stereo not drawn) [Compound II, N-(3-chloro-1-(pyridin-3-yl)-1H-pyrazol-4-yl)-N-ethyl-3-((3,3,3-trifluoropropyl)sulfinyl)propanamide]", "values": [
      {"measurement": "% Control Five Days After Treatment", "setting": "[6]", "result": 25, "unit": "%"},
      {"measurement": "% Control Three Days After Treatment", "setting": "[7]", "result": 20, "unit": "%"},
      {"measurement": "% Control After Six Days of Treatment", "setting": "[8]", "result": 0, "unit": "%"},
      {"measurement": "% Control Three Days After Treatment", "setting": "[9]; 0.10 weight %", "result": 12.5, "unit": "%"},
      {"measurement": "% Control Three Days After Treatment", "setting": "[9]; 0.13 weight %", "result": 18.8, "unit": "%"},
      {"measurement": "% Control Three Days After Treatment", "setting": "[9]; 0.20 weight %", "result": 6.3, "unit": "%"}
    ]},
    {"compound": "CC1(C)C(C=C(Cl)Cl)C1C(=O)OC(C#N)c1cccc(Oc2ccccc2)c1", "note": "(stereo not drawn) [alpha-Cypermethrin, alpha-cypermethrin, reference compound]", "values": [
      {"measurement": "Average % Control", "setting": "[5]; alpha-Cypermethrin alone (0:1), average of 0.0167 and 0.0333 weight %", "result": 21.1, "unit": "%"}
    ]}
  ]
}
